# Results reported in US12643903B2, “Bifunctional compounds for degradation of EGFR and related methods of use” (BeiGene, Ltd., priority 2020, dated 2026).
# Experiments:
# Format in all cases: cell-based
# Conditions in all cases: 16 h treatment, EGFR degradation by HTRF
# EGFR [1] = biological target: T1, EGFR (Homo sapiens, UniProt P00533, DEL746-750); test: Cell Degradation 2: EGFR degradation in HCC827 cells, HTRF assay
# T1 construct: endogenous in cells; host or cells: HCC827
# Method in brief: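 DC50 values derive from four-parameter fits of percent inhibition versus concentration. The HTRF read-out (665/620 nm ratio, 337 nm excitation) followed 16 h compound exposure of HCC827 cells, 1 h lysis and overnight room-temperature incubation with the HTRF antibodies.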
# EGFR DTC = test: Cell Degradation 3: EGFR degradation in BaF3 cells (DTC), HTRF assay
# Experimental: Cell Degradation 3 Cell Treatment
# BaF3 cells are treated with compounds diluted in 0.2% DMSO, dilution is done according to the following protocol: (1) make 500× stock solution in DMSO from 5 mM by 4-fold dilution, total 8 doses were included; (2) make 2× solution in cell culture medium by transferring 0.5 μl 500× stock solution into 125 μl medium; (3) 30 μl of 2× solution is added to cells and incubate for 16 h.
# After 16 h treatment, add 20 μl 4×lysis buffer to each well; seal the plate and incubate 1 hour at room temperature on a plate shaker; Once the cells are lysed, 16 μL of cell lysate are transferred to a PE 384-well HTRF detection plate (for triple mutant cells, the lysate were diluted by the qual volume 1×lysis buffer before transfer); 4 μL of pre-mixed HTRF antibodies are added to each well; Cover the plate with a plate sealer, spin 1000 rpm for 1 min, Incubate overnight at room temperature; Read on BMG PheraStar with HTRF protocol (337 nm-665 nm-620 nm).
# The IC50 (DC50) value of a compound can be obtained by fitting the following equation Y=Bottom+(TOP−Bottom)/(1+((IC50/X)^hillslope))
# Wherein, X and Y are known values, and IC50, Hillslope, Top and Bottom are the parameters obtained by fitting with software. Y is the inhibition percentage (calculated from the equation), X is the concentration of the compound; IC50 is the concentration of the compound when the 50% inhibition is reached. The smaller the IC50 value is, the stronger the inhibitory ability of the compound is. Vice versa, the higher the IC50 value is, the weaker the ability the inhibitory ability of the compound is; Hillslope represents the slope of the fitted curve, generally around 1*; Bottom represents the minimum value of the curve obtained by data fitting, which is generally 0%±20%; Top represents the maximum value of the curve obtained by data fitting, which is generally 100%±20%. The experimental data were fitted by calculating and analyzing with Dotmatics data analysis software.
# EGFR LTC = biological target: T2, EGFR LTC (Homo sapiens, UniProt P00533, C797S/L858R/T790M); test: Cell Degradation 3: EGFR degradation in BaF3 cells (LTC), HTRF assay
# T2 construct: expressed in transfected cells; host or cells: BaF3
# Method in brief: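 BaF3 cells expressing EGFR (LTC triple mutant C797S/L858R/T790M or DTC) exposed to compounds for 16 h, 8 doses from 4-fold dilution, 0.2% DMSO. Residual EGFR quantified by HTRF in lysates (triple mutant lysate diluted 1:1); DC50 from four-parameter logistic fit.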
# EGFR [2] = biological target: T3, EGFR (Homo sapiens, UniProt P00533, L858R/T790M); test: Cell Degradation 1: EGFR degradation in H1975 cells, HTRF assay
# T3 construct: endogenous in cells; host or cells: H1975
# Method in brief: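 EGFR levels were read by HTRF (337 nm excitation, 665 and 620 nm emission) in lysates of H1975 cells exposed to compound for 16 h, with antibodies incubated overnight at room temperature. Fitting percent inhibition versus concentration to a Hill equation gave DC50.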
# T2 sequence (P00533 25-1210 T790M/C797S/L858R): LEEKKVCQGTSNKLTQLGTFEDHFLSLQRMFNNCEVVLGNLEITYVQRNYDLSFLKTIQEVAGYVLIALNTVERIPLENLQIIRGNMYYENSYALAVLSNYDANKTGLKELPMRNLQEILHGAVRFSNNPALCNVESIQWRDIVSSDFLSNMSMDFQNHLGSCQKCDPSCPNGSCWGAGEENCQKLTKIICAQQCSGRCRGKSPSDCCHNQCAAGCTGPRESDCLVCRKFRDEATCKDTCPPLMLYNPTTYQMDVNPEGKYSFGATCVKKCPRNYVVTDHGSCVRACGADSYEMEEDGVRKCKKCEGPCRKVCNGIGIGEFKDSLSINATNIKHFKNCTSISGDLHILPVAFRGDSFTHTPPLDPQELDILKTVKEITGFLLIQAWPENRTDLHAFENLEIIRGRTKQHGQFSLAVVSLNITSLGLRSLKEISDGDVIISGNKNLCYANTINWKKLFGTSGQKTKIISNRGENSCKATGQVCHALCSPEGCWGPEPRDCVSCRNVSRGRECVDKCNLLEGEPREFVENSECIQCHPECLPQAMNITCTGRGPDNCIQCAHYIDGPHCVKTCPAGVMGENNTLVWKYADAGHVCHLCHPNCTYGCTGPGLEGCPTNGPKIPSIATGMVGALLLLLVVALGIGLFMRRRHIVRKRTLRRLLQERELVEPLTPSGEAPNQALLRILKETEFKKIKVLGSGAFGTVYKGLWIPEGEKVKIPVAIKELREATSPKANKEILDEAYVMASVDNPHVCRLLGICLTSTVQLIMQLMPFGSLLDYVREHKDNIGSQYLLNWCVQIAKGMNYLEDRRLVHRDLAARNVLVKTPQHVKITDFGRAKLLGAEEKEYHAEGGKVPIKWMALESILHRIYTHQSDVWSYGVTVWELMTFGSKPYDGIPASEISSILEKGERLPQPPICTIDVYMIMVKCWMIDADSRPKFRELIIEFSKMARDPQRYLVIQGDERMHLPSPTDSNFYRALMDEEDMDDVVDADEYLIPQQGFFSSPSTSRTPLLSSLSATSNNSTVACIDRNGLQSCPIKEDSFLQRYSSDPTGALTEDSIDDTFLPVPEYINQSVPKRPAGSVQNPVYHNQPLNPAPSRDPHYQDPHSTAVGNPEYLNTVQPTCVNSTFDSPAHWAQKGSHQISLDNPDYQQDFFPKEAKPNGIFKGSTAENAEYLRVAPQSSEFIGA
# T3 sequence (P00533 25-1210 T790M/L858R): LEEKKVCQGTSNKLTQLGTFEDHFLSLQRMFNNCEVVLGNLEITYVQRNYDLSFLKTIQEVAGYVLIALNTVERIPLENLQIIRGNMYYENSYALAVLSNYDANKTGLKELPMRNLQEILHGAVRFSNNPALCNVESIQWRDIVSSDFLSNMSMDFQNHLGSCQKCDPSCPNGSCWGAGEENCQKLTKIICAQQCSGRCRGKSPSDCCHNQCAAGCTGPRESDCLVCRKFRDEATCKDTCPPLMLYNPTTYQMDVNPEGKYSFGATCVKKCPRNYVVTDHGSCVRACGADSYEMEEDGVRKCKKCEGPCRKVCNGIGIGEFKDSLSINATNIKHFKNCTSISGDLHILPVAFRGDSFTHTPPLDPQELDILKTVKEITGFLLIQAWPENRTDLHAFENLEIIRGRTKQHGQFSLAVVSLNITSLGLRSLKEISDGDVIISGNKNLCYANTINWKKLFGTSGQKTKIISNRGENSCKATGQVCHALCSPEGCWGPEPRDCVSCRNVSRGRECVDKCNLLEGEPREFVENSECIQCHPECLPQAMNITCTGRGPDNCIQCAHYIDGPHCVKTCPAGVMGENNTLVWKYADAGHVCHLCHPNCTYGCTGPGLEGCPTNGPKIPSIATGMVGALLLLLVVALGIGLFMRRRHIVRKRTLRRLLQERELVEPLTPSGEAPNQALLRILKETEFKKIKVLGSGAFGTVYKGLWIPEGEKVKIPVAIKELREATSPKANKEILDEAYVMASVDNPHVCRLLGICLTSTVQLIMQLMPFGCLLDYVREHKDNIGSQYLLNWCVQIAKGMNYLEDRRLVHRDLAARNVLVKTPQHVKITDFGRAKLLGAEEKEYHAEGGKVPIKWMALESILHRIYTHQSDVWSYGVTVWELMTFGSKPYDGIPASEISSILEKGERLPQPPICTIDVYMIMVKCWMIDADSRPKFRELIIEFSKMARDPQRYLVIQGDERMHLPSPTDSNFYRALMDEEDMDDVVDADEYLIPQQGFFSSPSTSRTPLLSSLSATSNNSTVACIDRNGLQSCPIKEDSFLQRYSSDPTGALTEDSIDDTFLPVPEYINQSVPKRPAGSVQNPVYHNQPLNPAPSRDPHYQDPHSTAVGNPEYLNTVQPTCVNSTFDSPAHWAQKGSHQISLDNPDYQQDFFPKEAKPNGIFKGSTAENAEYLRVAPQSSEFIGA
# T1 sequence (P00533 with tags, fused parts or gaps DEL746-750): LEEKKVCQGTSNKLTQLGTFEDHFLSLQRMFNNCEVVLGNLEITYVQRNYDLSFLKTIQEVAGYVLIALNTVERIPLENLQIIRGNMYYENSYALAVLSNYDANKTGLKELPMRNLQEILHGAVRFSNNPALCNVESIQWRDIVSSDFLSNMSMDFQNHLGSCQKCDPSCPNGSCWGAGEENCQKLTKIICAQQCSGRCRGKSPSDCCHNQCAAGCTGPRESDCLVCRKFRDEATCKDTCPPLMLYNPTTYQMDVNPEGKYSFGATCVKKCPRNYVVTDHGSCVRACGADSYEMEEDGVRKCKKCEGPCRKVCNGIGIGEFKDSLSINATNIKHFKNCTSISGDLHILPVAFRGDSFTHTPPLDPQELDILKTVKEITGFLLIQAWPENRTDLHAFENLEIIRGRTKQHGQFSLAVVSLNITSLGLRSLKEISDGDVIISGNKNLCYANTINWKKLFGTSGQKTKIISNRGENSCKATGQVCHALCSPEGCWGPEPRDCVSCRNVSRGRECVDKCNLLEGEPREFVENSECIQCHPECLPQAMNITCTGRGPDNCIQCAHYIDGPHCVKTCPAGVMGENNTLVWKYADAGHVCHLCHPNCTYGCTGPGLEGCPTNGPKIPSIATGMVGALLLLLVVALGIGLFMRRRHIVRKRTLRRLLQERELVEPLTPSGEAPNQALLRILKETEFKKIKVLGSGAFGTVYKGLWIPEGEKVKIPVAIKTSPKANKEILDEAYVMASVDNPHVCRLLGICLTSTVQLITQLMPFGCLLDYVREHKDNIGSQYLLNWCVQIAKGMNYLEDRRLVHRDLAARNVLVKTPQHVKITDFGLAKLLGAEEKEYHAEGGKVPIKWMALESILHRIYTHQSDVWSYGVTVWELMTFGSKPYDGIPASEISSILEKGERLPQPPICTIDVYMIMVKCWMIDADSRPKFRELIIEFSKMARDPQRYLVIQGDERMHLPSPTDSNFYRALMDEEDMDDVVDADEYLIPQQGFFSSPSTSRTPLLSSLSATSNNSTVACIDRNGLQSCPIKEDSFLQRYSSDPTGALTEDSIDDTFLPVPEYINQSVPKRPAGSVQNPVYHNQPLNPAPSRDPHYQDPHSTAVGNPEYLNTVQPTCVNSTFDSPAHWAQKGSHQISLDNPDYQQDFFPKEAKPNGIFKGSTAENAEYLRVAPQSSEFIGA
# T1 sequence (Q96SW2 whole entry partner): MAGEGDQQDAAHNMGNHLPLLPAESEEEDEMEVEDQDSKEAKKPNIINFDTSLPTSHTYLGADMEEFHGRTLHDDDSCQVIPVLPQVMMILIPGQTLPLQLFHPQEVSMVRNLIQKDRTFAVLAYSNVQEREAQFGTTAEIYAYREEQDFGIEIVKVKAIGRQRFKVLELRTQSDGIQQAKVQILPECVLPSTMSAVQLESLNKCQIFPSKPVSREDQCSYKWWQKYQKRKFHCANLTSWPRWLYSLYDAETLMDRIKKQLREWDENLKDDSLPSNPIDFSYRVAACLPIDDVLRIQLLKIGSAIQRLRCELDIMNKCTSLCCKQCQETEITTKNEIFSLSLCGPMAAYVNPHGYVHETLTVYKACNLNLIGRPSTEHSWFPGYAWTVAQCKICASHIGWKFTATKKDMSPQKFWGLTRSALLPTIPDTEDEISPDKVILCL
smiles,measurement,setting,value
"COc1cc(N2CCC(N3CCN(CCc4ccc(C5CCC(=O)NC5=O)cc4)CC3)CC2)c(C)cc1Nc1ncc(Br)c(Nc2cccc3c2N(S(C)(=O)=O)CC3)n1 (stereo not shown) [Example 39, 3-(4-(2-(4-(1-(4-((5-bromo-4-((1-(methylsulfonyl)indolin-7-yl)amino)pyrimidin-2-yl)amino)-5-methoxy-2-methylphenyl)piperidin-4-yl)piperazin-1-yl)ethyl)phenyl)piperidine-2,6-dione]",DC50,EGFR [1],13.6 nM
same,DC50,EGFR DTC,33.7 nM
same,DC50,EGFR LTC,157 nM
same,DC50,EGFR [2],12.1 nM
"COc1cc(N2CCC(N3CCN(CC4CN(c5ccc6c(c5)CN(C5CCC(=O)NC5=O)C6=O)C4)CC3)CC2)ccc1Nc1ncc(Cl)c(Nc2cccc3c2N(S(C)(=O)=O)CC3)n1 (stereo not shown) [Example 85, 3-(5-(3-((4-(1-(4-((5-chloro-4-((1-(methylsulfonyl)indolin-7-yl)amino)pyrimidin-2-yl)amino)-3-methoxyphenyl)piperidin-4-yl)piperazin-1-yl)methyl)azetidin-1-yl)-1-oxoisoindolin-2-yl)piperidine-2,6-dione]",DC50,EGFR [1],2.9 nM
same,DC50,EGFR DTC,1.8 nM
same,DC50,EGFR LTC,2.8 nM
same,DC50,EGFR [2],3 nM
"CS(=O)(=O)N1CCc2cccc(Nc3nc(Nc4ccc(N5CCC(N6CCN(CCc7ccc(C8CCC(=O)NC8=O)c(F)c7)CC6)CC5)c5c4OCC5)ncc3Cl)c21 (stereo not shown) [Example 53, 3-(4-(2-(4-(1-(7-((5-chloro-4-((1-(methylsulfonyl)indolin-7-yl)amino)pyrimidin-2-yl)amino)-2,3-dihydrobenzofuran-4-yl)piperidin-4-yl)piperazin-1-yl)ethyl)-2-fluorophenyl)piperidine-2,6-dione]",DC50,EGFR [1],3.7 nM
same,DC50,EGFR DTC,21.8 nM
same,DC50,EGFR LTC,35.7 nM
same,DC50,EGFR [2],2.6 nM
"COc1cc(N2CCC(N3CCN(CC4CN(c5ccc6c(c5)C(=O)N(C5CCC(=O)NC5=O)C6=O)C4)CC3)CC2)ccc1Nc1ncc(Cl)c(Nc2cccc3c2N(S(C)(=O)=O)CC3)n1 (stereo not shown) [Example 86, 5-(3-((4-(1-(4-((5-chloro-4-((1-(methylsulfonyl)indolin-7-yl)amino)pyrimidin-2-yl)amino)-3-methoxyphenyl)piperidin-4-yl)piperazin-1-yl)methyl)azetidin-1-yl)-2-(2,6-dioxopiperidin-3-yl)isoindoline-1,3-dione]",DC50,EGFR [1],2.7 nM
same,DC50,EGFR DTC,13 nM
same,DC50,EGFR LTC,16.2 nM
same,DC50,EGFR [2],1.8 nM
"COc1cc(N2CCC(N3CCN(C(=O)[C@H]4CCN(c5ccc6c(c5)C(=O)N(C5CCC(=O)NC5=O)C6=O)C4)CC3)CC2)ccc1Nc1ncc(Cl)c(Nc2cccc3c2N(S(C)(=O)=O)CC3)n1 (stereo partly drawn) [Example 87, 5-((S)-3-(4-(1-(4-((5-chloro-4-((1-(methylsulfonyl)indolin-7-yl)amino)pyrimidin-2-yl)amino)-3-methoxyphenyl)piperidin-4-yl)piperazine-1-carbonyl)pyrrolidin-1-yl)-2-(26-dioxopiperidin-3-yl)isoindoline-1,3-dione]",DC50,EGFR [1],3.1 nM
same,DC50,EGFR DTC,2.4 nM
same,DC50,EGFR LTC,16.5 nM
same,DC50,EGFR [2],3.5 nM
"COc1cc(N2CCC(N3CCN(C(=O)C4CN(c5ccc6c(c5)CN(C5CCC(=O)NC5=O)C6=O)C4)CC3)CC2)c(C)cc1Nc1ncc(Br)c(Nc2cccc3c2N(S(C)(=O)=O)CC3)n1 (stereo not shown) [Example 172, 3-(5-(3-(4-(1-(4-((5-bromo-4-((1-(methylsulfonyl)indolin-7-yl)amino)pyrimidin-2-yl)amino)-5-methoxy-2-methylphenyl)piperidin-4-yl)piperazine-1-carbonyl)azetidin-1-yl)-1-oxoisoindolin-2-yl)piperidine-2,6-dione]",DC50,EGFR [1],2 nM
same,DC50,EGFR DTC,4 nM
same,DC50,EGFR LTC,9 nM
"CS(=O)(=O)N1CCc2cccc(Nc3nc(Nc4ccc(N5CCC(N6CCN(CCC7CCN(c8ccc(C9CCC(=O)NC9=O)cc8)CC7)CC6)CC5)c5c4OCC5)ncc3Cl)c21 (stereo not shown) [Example 54, 3-(4-(4-(2-(4-(1-(7-((5-chloro-4-((1-(methylsulfonyl)indolin-7-yl)amino)pyrimidin-2-yl)amino)-2,3-dihydrobenzofuran-4-yl)piperidin-4-yl)piperazin-1-yl)ethyl)piperidin-1-yl)phenyl)piperidine-2,6-dione]",DC50,EGFR [1],8.9 nM
same,DC50,EGFR DTC,120 nM
same,DC50,EGFR LTC,443 nM
same,DC50,EGFR [2],8.9 nM
"CS(=O)(=O)N1CCc2cccc(Nc3nc(Nc4ccc(N5CCC(N6CCN(CCCC7CN(c8ccc9c(c8)C(=O)N(C8CCC(=O)NC8=O)C9=O)C7)CC6)CC5)c(F)c4)nc4[nH]ccc34)c21 (stereo not shown) [Example 19, 2-(2,6-dioxopiperidin-3-yl)-5-(3-(3-(4-(1-(2-fluoro-4-((4-((1-(methylsulfonyl)indolin-7-yl)amino)-7H-pyrrolo[2,3-d]pyrimidin-2-yl)amino)phenyl)piperidin-4-yl)piperazin-1-yl)propyl)azetidin-1-yl)isoindoline-1,3-dione]",DC50,EGFR [1],10.8 nM
same,DC50,EGFR DTC,16.7 nM
same,DC50,EGFR LTC,24.2 nM
same,DC50,EGFR [2],6.03 nM
"CS(=O)(=O)N1CCc2cccc(Nc3nc(Nc4ccc(N5CCC(N6CCN(CCc7ccc(C8CCC(=O)NC8=O)c(F)c7)CC6)CC5)c(F)c4)nc4[nH]ccc34)c21 (stereo not shown) [Example 3, 3-(2-fluoro-4-(2-(4-(1-(2-fluoro-4-((4-((1-(methylsulfonyl)indolin-7-yl)amino)-7H-pyrrolo[2,3-d]pyrimidin-2-yl)amino)phenyl)piperidin-4-yl)piperazin-1-yl)ethyl)phenyl)piperidine-2,6-dione]",DC50,EGFR [1],19.8 nM
same,DC50,EGFR DTC,11.6 nM
same,DC50,EGFR LTC,19.9 nM
same,DC50,EGFR [2],9.5 nM
"CS(=O)(=O)N1CCc2cccc(Nc3nc(Nc4ccc(N5CCC(N6CCN(C(=O)C7CN(c8ccc9c(c8)C(=O)N(C8CCC(=O)NC8=O)C9=O)C7)CC6)CC5)c(F)c4)ncc3Cl)c21 (stereo not shown) [Example 77, 5-(3-(4-(1-(4-((5-chloro-4-((1-(methylsulfonyl)indolin-7-yl)amino)pyrimidin-2-yl)amino)-2-fluorophenyl)piperidin-4-yl)piperazine-1-carbonyl)azetidin-1-yl)-2-(2,6-dioxopiperidin-3-yl)isoindoline-1,3-dione]",DC50,EGFR [1],1.7 nM
same,DC50,EGFR DTC,1.8 nM
same,DC50,EGFR LTC,2.7 nM
same,DC50,EGFR [2],2.3 nM
"COc1cc(N2CCC(N3CCN(CCC4CCN(c5ccc6c(c5)C(=O)N(C5CCC(=O)NC5=O)C6=O)CC4)CC3)CC2)c(C)cc1Nc1ncc(Br)c(Nc2cccc3c2N(S(C)(=O)=O)CC3)n1 (stereo not shown) [Example 91, 5-(4-(2-(4-(1-(4-((5-bromo-4-((1-(methylsulfonyl)indolin-7-yl)amino)pyrimidin-2-yl)amino)-5-methoxy-2-methylphenyl)piperidin-4-yl)piperazin-1-yl)ethyl)piperidin-1-yl)-2-(2,6-dioxopiperidin-3-yl)isoindoline-1,3-dione]",DC50,EGFR [1],6.4 nM
same,DC50,EGFR DTC,14.9 nM
same,DC50,EGFR LTC,39.9 nM
same,DC50,EGFR [2],3.5 nM
"COc1cc(N2CCC(N3CCN(CCC4CCN(c5ccc(C6CCC(=O)NC6=O)cc5)CC4)CC3)CC2)ccc1Nc1ncc(Cl)c(Nc2cccc3c2N(S(C)(=O)=O)CC3)n1 (stereo not shown) [Example 35, 3-(4-(4-(2-(4-(1-(4-((5-chloro-4-((1-(methylsulfonyl)indolin-7-yl)amino)pyrimidin-2-yl)amino)-3-methoxyphenyl)piperidin-4-yl)piperazin-1-yl)ethyl)piperidin-1-yl)phenyl)piperidine-2,6-dione]",DC50,EGFR [1],8.4 nM
same,DC50,EGFR DTC,48.1 nM
same,DC50,EGFR LTC,203 nM
same,DC50,EGFR [2],7.2 nM
"COc1cc(N2CCC(N3CCN(C(=O)[C@H]4C[C@H](N(C)c5ccc6c(c5)C(=O)N(C5CCC(=O)NC5=O)C6=O)C4)CC3)CC2)c(C)cc1Nc1ncc(Br)c(Nc2cccc3c2N(S(C)(=O)=O)CC3)n1 (stereo partly shown) [Example 158, 5-(((1r,3r)-3-(4-(1-(4-((5-bromo-4-((1-(methylsulfonyl)indolin-7-yl)amino)pyrimidin-2-yl)amino)-5-methoxy-2-methylphenyl)piperidin-4-yl)piperazine-1-carbonyl)cyclobutyl)(methyl)amino)-2-(2,6-dioxopiperidin-3-yl)isoindoline-1,3-dione]",DC50,EGFR DTC,19 nM
same,DC50,EGFR LTC,41 nM
